Data on 3 molecules can be found in PMC10673058, “In Silico and In Vitro Search for Dual Inhibitors of the Trypanosoma brucei and Leishmania major Pteridine Reductase 1 and Dihydrofolate Reductase” (Molecules, 2023).

Read-outs that look alike come from different tables or passages of the source. Some results are limits rather than exact numbers.

Assay [1] deals with T. brucei. Details: method as in PMID 27077842. To be noted: read-out: IC50 antitrypanosomal activity in T. brucei cell assays; cited from earlier work.
The next assay addresses T1, hDHFR (Homo sapiens, UniProt P00374).
T1 construct: His; host or cells: E. coli BL21 (DE3), vector pET 15b::hDHFRHis
T1 sequence (P00374 1-187): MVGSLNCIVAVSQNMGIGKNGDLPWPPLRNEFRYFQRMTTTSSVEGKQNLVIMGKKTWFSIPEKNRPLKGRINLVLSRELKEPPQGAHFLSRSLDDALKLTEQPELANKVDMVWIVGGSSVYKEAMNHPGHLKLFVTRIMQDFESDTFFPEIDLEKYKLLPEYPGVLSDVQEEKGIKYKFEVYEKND
The assay is described as follows: Spectrophotometric enzyme inhibition assay, recombinant hDHFR (selectivity). In kind it is biochemical. To be noted: for inhibition at 50 µM: set compound concentration of 50 μM, read-out: relative inhibition of hDHFR. The method, then:
For 15 compounds, there was enough substance available to be tested in selectivity studies against hDHFR.
The used hDHFR concentration was 0.64 mg/mL, with a specific activity of 0.62 U/mg. All measurements were carried out using the saturating concentrations for dihydrofolate (100 μM) and NADPH (50 μM) in Buffer C (50 mM Tris/HCl (pH 7.6), 250 mM NaCl, 10 mM BME). The saturating conditions for hDHFR were determined using the diagrams depicted in Figure S20 in the Supplementary Materials.
(§1) The inhibitory effect of the selected natural products was investigated by testing the DMSO solution of each compound at a constant concentration of 100 μM for TbPTR1 and 50 μM for LmPTR1, TbDHFR, and LmDHFR, as well as hDHFR. The concentrations of the cofactor and substrates were set at the previously determined saturating conditions (Section 4.2.5). Each test compound was incubated for 20 min with the respective enzyme and NADPH to ensure a sufficient interaction time before the reaction was induced by the addition of the substrate. The enzymatic activity was determined in duplicates and correlated with a reference that contained just DMSO, instead of an inhibitor. The enzymatic activity of the reference was normalized to 100%.
(§2) The half-maximal inhibitory concentration (IC50) of the natural products was determined in triplicate, using at least five different inhibitor concentrations against a reference containing no inhibitor. The enzymatic activity was documented and analyzed and the IC50 value was determined by nonlinear regression using GraphPad Prism 9 (GraphPad Software Inc., La Jolla, CA, USA).

The target in a further assay is T2, LmDHFR (Leishmania major, UniProt P07382).
T2 construct: The DNA fragment encoding LmDHFR was amplified by Phusion DNA polymerase; His6 (N); made in house; host or cells: E. coli BL21(DE3), vector pET 11D::LmDHFRHis
T2 sequence (P07382 26-229 limits assumed): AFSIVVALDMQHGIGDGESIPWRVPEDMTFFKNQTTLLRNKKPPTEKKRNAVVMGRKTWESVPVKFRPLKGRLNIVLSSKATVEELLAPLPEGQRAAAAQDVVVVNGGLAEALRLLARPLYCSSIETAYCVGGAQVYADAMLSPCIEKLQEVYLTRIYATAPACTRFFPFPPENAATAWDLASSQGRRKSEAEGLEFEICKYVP
Description: Spectrophotometric enzyme inhibition assay, recombinant LmDHFR. In kind it is biochemical. The method, then:
(§3) Based on the in vitro assays against TbPTR1 and LmPTR1 performed in the previous works of our group, as well as the in silico results obtained from the current study, a total of 47 natural products were tested against the target enzymes. […] The concentration-effect curves for the IC50 and EC50 values that were obtained in the present study are depicted in Supplementary Materials Figures S21–S42.
The TbDHFR concentration was measured to be 0.04 mg/mL and a specific activity of 38.1 U/mg was calculated. The concentration of LmDHFR was 0.05 mg/mL with a specific activity of 56.2 U/mg. All measurements were carried out using the saturating concentrations for dihydrofolate (50 μM) and NADPH (150 μM) in Buffer C (50 mM Tris/HCl (pH 7.6), 250 mM NaCl, 10 mM BME). The saturating conditions for TbDHFR and LmDHFR were determined using the diagrams depicted in Figures S17 and S19 in the Supplementary Materials.
as §1, §2

The target in assay [2] is T3, TbPTR1 (Trypanosoma brucei brucei, UniProt O76290).
T3 construct: His6 (N); made in house; host or cells: E. coli BL21 (DE3), vector pET 15b::TbPTR1His (strain from the group of M. Paola Costi, Modena)
T3 sequence (O76290 1-268): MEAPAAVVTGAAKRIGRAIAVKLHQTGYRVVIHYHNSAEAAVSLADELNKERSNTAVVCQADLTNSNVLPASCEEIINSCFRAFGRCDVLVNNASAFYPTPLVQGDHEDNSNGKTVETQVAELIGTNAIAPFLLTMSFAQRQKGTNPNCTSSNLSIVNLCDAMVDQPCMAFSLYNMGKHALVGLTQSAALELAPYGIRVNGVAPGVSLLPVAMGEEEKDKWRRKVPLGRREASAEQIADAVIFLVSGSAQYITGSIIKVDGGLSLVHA
The assay is described as follows: Spectrophotometric enzyme inhibition assay, recombinant TbPTR1. In kind it is biochemical. As to conditions: read-out: IC50 TbPTR1. The method, then: as §3
(§4) The used TbPTR1 concentration was 3.23 mg/mL, with a specific activity of 0.03 U/mg. The measurements were carried out using the enzyme’s individual saturating concentrations for folic acid (8 μM) and NADPH (150 μM) in Buffer A (50 mM Tris/HCl (pH 7.6), 250 mM NaCl). For LmPTR1, the protein concentration was 5.02 mg/mL and the specific activity was calculated to be 0.29 U/mg. Buffer B (50 mM NaH2PO4 (pH 6.0), 100 mM NaCl) was used for all LmPTR1 measurements and the saturating concentrations amounted to 50 μM of folic acid and 200 μM of NADPH. The saturating conditions of the PTR1 enzymes were determined using the diagrams depicted in Figures S16 and S18 in the Supplementary Materials.
as §1, §2

In another assay the target is T4, TbDHFR (Trypanosoma brucei brucei, UniProt Q27783).
T4 construct: pET 11D::TbDHFRHis vector design for the recombinant overexpression of TbDHFR in E. coli; His; made in house; host or cells: E. coli BL21(DE3), vector pET 11D::TbDHFRHis
T4 sequence (Q27783 28-238 limits assumed): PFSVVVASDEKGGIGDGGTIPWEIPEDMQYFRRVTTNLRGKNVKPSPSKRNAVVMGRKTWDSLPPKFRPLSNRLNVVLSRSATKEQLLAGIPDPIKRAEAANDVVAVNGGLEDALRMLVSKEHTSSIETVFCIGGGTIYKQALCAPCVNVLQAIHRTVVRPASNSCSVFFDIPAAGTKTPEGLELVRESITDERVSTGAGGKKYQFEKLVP
Description: Spectrophotometric enzyme inhibition assay, recombinant TbDHFR. The format is biochemical. The method, then:
Based on the in vitro assays against TbPTR1 and LmPTR1 performed in the previous works of our group, as well as the in silico results obtained from the current study, a total of 47 natural products were tested against the target enzymes.
The saturating conditions for TbDHFR and LmDHFR were determined using the diagrams depicted in Figures S17 and S19 in the Supplementary Materials.
as §1, §2

A further assay has as its target T5, LmPTR1 (Leishmania major, UniProt Q01782).
T5 construct: His6 (N); made in house; host or cells: E. coli BL21 (DE3), vector pET 15b::LmPTR1His (strain from the group of M. Paola Costi, Modena)
T5 sequence (Q01782 1-288): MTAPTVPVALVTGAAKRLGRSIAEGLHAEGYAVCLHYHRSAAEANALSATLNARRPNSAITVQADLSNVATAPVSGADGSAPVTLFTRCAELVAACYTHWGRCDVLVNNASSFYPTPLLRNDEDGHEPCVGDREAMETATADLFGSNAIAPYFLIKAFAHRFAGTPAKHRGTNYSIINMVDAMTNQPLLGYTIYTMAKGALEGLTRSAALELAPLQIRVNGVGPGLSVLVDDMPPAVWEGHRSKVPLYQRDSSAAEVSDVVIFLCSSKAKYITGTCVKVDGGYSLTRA
Description: Spectrophotometric enzyme inhibition assay, recombinant LmPTR1. In kind it is biochemical. As to conditions: read-out: IC50 LmPTR1. The method, then: as §3, §4, §1, §2

Assay [3] has as its system T. brucei. As to conditions: read-out: EC50 in vitro against T. brucei; cited from earlier work.
The test system of a further assay is L. major. As to conditions: read-out: EC50 against L. major; cited from earlier work.
In assay [4] the target is T3, TbPTR1. The assay is described as follows: Dilution assay for reversible/irreversible inhibition of TbPTR1. In kind it is biochemical. To be noted: inhibitor concentration near IC50. An excerpt:
The catalytic center of TbPTR1 contains a cysteine residue (TbCys168) in close proximity to the substrate/inhibitor binding site. In our previous publication, we mentioned the possibility that Sesquiterpene Lactones 1 and 2 might interact as Michael acceptors with TbCys168 by covalent bond formation with its thiol group. Therefore, we have now subjected a selection of natural product inhibitors containing Michael acceptors (1, 2, 5, 17) to initial testing for irreversible inhibition, according to the dilution method described by Bisswanger (see Section 4.2.9).
In this method, the enzyme activity of the respective enzyme-inhibitor mixture is measured before and after a defined dilution (in this study, 1:2). In the absence of an inhibitor, dilution decreases the enzyme activity proportionally to the dilution factor. […] A reversible inhibitor, on the other hand, will dissociate upon dilution, resulting in a weaker decrease in activity than what corresponds to the dilution effect. In the presence of Inhibitors 1 and 2, the decrease in TbPTR1 activity upon the 1:2 dilution was almost proportional to the dilution factor, i.e., only 9.5% and 6.8% activity, respectively, were recovered compared to the reference. This would indeed support an irreversible mechanism of inhibition. […] However, further investigations on these compounds’ mechanisms of inhibition are under way.
To assign an either reversible or irreversible inhibition mechanism to selected compounds, the enzymatic activity of an enzyme-inhibitor mixture was determined before and after a defined dilution, using the reaction conditions described in Section 4.2.5 [16].
Two equivalent solutions with the respective enzyme and inhibitor combination were prepared, one of them being diluted with buffer in a 1:2 ratio shortly before the reaction was started by adding the substrate. The respective inhibitor concentration was set near the IC50 value. The substrate and cofactor concentrations were kept constant in both reaction mixtures. All measurements were carried out in duplicates against a reference containing DMSO instead of the inhibitor. […] If a reversible inhibitor was present, a higher degree of activity recovery (>>10%) could be observed than what corresponds to the dilution factor due to the partial dissociation of the inhibitor from the enzyme upon dilution. The percentual changes in the enzymatic activity of the undiluted and diluted test solution were compared and evaluated to decide the mechanism of inhibition.

For orientation: IC50 means the midpoint of a concentration-inhibition curve. One may read the EC50 as the concentration that produces a half-maximal response. What is called inhibition is how much of the control response was suppressed.

On to `O=C(/C=C/c1ccc(O)c(O)c1/C=C/c1ccc(O)c(O)c1)O[C@H](Cc1ccc(O)c(O)c1)C(=O)O` [Compound 8, salvianolic acid A], for which the IC50 with T. brucei [1] was 3.1 µM; on hDHFR, above 50 µM; on TbPTR1 [2], 85.1 µM; at TbDHFR, 2.5 µM. The EC50 at LmDHFR turned out to be 18.7 µM.
In the case of `C=C(C)[C@H](CC=C(C)C)Cc1c(O)cc(O)c2c1O[C@H](c1ccc(O)cc1O)CC2=O` [Compound 9, sophoraflavanone G], the IC50 with T. brucei [1] is 1.4 µM; at LmDHFR (read-out: IC50 LmDHFR), 14 µM; on TbPTR1 [2], 31.8 µM; on TbDHFR (read-out: IC50 TbDHFR), 9.4 µM. Besides, the EC50 on hDHFR (read-out: EC50 hDHFR (footnote a)) amounted to 31.6 µM. The inhibition at 50 µM at hDHFR is above 50%.
Consider `O=C(/C=C/CCc1ccc(O)c(O)c1)CCc1ccc(O)c(O)c1` [Compound 17, dehydrohirsutanone], for which the IC50 on hDHFR was 40.7 µM; at LmPTR1, above 50 µM; at TbPTR1 [2], 8.3 µM; at TbDHFR (read-out: IC50 TbDHFR) it was 17.7 µM. Moreover, the inhibition at 50 µM at hDHFR is above 50%. For the same molecule, the EC50 was 2.5 µM in the assay on T. brucei [3] and above 100 µM in the assay on L. major. Besides, the “TbPTR1 activity recovered upon 1:2 dilution compared to the reference” value at TbPTR1 [4] worked out at 12.8%.
